Assay results reported in ChEMBL document CHEMBL1201862, “PubChem BioAssay data set” (2004).
The source made the active and inactive calls.

Columns and labels:
[1] = Luminescence Cell-Based Dose Response HTS to Identify Inhibitors of 5'UTR Stem-Loop Driven Prion Protein mRNA Translation in H4 Neuroglioblastoma Cells. [Related pubchem assays: 1827 (Project Summary), 1813 (Primary HTS)]; type: functional
Streptokinase A = molecular target: T1, Streptokinase A (Streptococcus pyogenes serotype M1, UniProt P10520); test: viability-normalized secreted streptokinase activity reduction – plasminogen activation absorbance, OD405, dose response (AID 1914); type: functional, Streptococcus pyogenes M1 GAS;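 further: secreted streptokinase activity via plasminogen activation per viability signal from cell pellet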
T1 sequence (P10520 whole entry): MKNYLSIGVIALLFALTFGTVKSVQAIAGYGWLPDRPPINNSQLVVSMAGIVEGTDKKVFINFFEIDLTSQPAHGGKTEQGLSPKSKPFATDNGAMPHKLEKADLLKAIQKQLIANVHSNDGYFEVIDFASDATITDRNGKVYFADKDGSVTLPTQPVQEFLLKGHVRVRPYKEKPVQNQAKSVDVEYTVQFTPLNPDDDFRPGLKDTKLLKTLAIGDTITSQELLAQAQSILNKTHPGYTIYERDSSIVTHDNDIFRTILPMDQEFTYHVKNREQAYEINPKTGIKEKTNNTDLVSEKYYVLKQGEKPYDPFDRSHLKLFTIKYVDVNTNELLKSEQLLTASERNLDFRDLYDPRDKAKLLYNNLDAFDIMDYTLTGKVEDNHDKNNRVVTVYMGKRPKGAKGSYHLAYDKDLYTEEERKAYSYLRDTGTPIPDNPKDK

[2] = system: Streptococcus sp. 'group A'; test: Streptococcus pyogenes SK(-)GAS viability under kanamycin – luminescence, BacTiterGlo, confirmation, counter-screen for streptokinase expression inhibitor project, dose response (AID 1900); type: functional, organism-based
[3] = alpha-synuclein stem-loop luciferase translation blockers – H4 neuroglioma cells, luminescence, confirmation (AID 1988); type: functional, cell-based
[4] = luciferase reporter signal suppression in cells – H4 neuroglioma cells, luminescence, dose response (AID 1990); type: functional, cell-based
Streptococcus = test: GAS UMAA2166 growth inhibition – luminescence, BacTiterGlo, counter-screen for streptokinase expression inhibitor project, dose response (AID 1915); type: functional, organism-based;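 further: potency for reduction of bacterial viability or growth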
[5] = viability loss in Vero cells – cytotoxicity control for Vif-APOBEC3G degradation inhibitor project, dose response (AID 1117358); type: functional; conditions: Vero
[6] = loss of viability in HepG2 cells – cell-based, CellTiter-Glo, cherry-picked, cytotoxicity control for Shn3 inhibitor project, dose response (AID 624134); type: functional
[7] = viability loss in THP-1 monocytes – THP-1 cells, cytotoxicity control for Vif-APOBEC3G degradation inhibitor project, dose response (AID 1117359); type: functional; conditions: THP-1
[8] = molecular target: T2, Probable nicotinate-nucleotide adenylyltransferase (Staphylococcus aureus (strain N315), UniProt P65502); type: functional, Staphylococcus aureus subsp. aureus N315;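 on IC50 Mean: confirmatory dose-response retesting of NadD inhibitor hits first found in an ultra-high-throughput screen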
[9] = molecular target: T2, Probable nicotinate-nucleotide adenylyltransferase; type: functional, Staphylococcus aureus subsp. aureus N315; conditions: read-out: IC50_Mean
[10] = HIV-1 Vif–A3G interaction blockers – biochemical, TR-FRET, GST-Vif 1-94, biotin-A3G peptide, dose response retest, primary screen (AID 1117319); type: functional;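 further: TR-FRET signal of purified GST-Vif binding a biotinylated A3G peptide; inhibitors lower the FRET signal by blocking Vif and A3G binding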
[11] = NIH3T3 cell viability loss – ATP luminescence, mouse fibroblasts, counter-screen, dose response (AID 2010); type: functional, cell-based;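 further: cells exposed to compound for about 90 hours before reading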
[12] = non-specific 3'UTR reporter inhibition in Clone20-Shn3RL – cell-based, Renilla luciferase, cherry-picked, counter-screen for Shn3 inhibitor project, dose response (AID 624133); type: functional
INS1 = test: INS-1E survival protection against cytokine death – cell-based, luminescence, retest, dose response (AID 449756); type: functional; conditions: Rattus norvegicus;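 further: cell death triggered by IL-1 beta plus TNF-alpha plus IFN-gamma mixture; protective hits raise ATP signal compared with cytokine alone wells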
[13] = reduction of Shn3 3'UTR-driven luciferase in osteoblasts – cell-based, Clone20 osteoblasts, firefly luciferase, cherry-picked, dose response (AID 624132); type: functional;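 further: firefly luciferase luminescence from reporter carrying the Shn3 3'UTR in osteoblasts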
[14] = Trypanosoma cruzi growth suppression in host cells – NIH3T3 host cells, beta-gal luminescence, confirmation (AID 2044); type: functional, cell-based;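 further: intracellular parasites grown in NIH/3T3 mouse fibroblasts as host cells; luminescent beta-galactosidase reporter signal from transgenic T. cruzi replicating inside host cells; inhibitors lower the luminescence signal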
Galanin receptor type 2 = Galanin receptor type 2 (Homo sapiens, UniProt O43603); test: Dose Response cell-based high-throughput screening assay to identify agonists of galanin receptor 2 (GALR2). [Related pubchem assays: 864 ]; type: functional
[15] = molecular target: T3, Short transient receptor potential channel 4 (Mus musculus, UniProt Q9QUQ5); test: block of DAMGO-driven TRPC4 calcium entry – cell-based, HEK293 TRPC4/mu-opioid, Fluo-4 calcium, dose response (AID 434942); type: functional;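 further: potency of inhibitors blocking the TRPC4 calcium response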
T3 sequence (Q9QUQ5 whole entry): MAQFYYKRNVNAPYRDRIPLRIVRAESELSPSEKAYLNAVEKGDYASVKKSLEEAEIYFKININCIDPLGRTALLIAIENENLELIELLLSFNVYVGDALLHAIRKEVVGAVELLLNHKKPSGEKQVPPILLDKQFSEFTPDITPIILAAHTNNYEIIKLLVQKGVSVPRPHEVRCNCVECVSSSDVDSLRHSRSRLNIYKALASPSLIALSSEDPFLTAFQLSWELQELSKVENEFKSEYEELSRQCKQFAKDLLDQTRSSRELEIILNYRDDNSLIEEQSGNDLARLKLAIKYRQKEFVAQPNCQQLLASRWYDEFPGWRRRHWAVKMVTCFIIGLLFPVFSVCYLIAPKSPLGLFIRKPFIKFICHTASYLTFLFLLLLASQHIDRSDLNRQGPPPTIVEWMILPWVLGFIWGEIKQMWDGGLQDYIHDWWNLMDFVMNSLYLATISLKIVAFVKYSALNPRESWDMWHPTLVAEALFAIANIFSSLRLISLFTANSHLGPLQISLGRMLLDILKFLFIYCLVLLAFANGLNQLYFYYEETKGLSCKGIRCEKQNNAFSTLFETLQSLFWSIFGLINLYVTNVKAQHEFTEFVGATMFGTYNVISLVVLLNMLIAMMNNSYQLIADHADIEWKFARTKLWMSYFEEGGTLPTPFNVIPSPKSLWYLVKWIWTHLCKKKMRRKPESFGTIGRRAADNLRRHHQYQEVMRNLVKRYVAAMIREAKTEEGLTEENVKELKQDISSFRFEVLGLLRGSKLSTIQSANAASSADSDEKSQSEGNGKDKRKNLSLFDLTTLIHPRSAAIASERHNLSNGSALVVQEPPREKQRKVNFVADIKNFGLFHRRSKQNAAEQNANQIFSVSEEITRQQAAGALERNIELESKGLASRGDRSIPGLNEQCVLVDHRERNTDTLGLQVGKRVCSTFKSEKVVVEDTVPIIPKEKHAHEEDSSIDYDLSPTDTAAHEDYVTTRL

14-3-3 protein gamma = 14-3-3 protein gamma (Homo sapiens, UniProt P61981); test: modulators of 14-3-3 gamma client binding – dose response (AID 711); type: functional
Chain of 14-3-3 protein gamma (P61981 whole entry): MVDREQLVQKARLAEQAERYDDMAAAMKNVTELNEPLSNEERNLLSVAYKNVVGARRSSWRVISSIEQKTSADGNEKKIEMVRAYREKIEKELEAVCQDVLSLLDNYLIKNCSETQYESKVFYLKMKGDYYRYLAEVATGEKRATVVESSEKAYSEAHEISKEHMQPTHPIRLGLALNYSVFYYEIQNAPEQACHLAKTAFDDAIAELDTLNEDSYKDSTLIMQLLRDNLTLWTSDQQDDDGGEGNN

T2 sequence (P65502 whole entry): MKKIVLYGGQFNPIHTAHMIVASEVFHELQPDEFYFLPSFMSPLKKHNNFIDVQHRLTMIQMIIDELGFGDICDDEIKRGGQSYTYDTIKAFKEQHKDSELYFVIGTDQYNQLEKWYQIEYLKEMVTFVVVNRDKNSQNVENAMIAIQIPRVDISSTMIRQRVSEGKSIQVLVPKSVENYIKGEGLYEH
Chain of Galanin receptor type 2 (O43603 whole entry): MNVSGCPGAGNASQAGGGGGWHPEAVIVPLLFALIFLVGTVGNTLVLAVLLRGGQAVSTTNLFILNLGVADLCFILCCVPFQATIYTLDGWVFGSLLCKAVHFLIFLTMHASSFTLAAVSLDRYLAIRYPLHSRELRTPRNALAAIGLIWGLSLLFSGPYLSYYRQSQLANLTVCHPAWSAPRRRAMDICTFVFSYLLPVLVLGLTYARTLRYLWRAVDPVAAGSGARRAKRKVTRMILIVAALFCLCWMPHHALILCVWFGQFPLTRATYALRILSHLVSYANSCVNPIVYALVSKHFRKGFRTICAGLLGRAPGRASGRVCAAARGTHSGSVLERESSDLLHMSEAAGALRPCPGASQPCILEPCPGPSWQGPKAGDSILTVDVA

| Compound | EC50 [1] | EC50 (Streptokinase A) | EC50 [2] | EC50 [3] | EC50 [4] | EC50 (Streptococcus) | CC50 [5] | AC50 [6] | CC50 [7] | IC50 [8] | IC50 [9] | IC50 [10] | EC50 [11] | AC50 [12] | AC50 (INS1) | AC50 [13] | EC50 [14] | EC50 (Galanin receptor type 2) | EC50 [15] | IC50 (14-3-3 protein gamma) |
| --- | --- | --- | --- | --- | --- | --- | --- | --- | --- | --- | --- | --- | --- | --- | --- | --- | --- | --- | --- | --- |
| CC(C)c1ccc(-c2[nH]c(N3CCCC3)nc3nnc(N)c2-3)cc1 | > 120 µM (not active) | > 150 µM (not active) | 103 µM (active) | 12.9 µM (active) | > 120 µM (not active) | > 150 µM (not active) | > 40 µM (active) | – | – | – | – | – | – | – | – | – | – | – | – | – |
| Cc1cccc2sc(NNC(=O)c3ccc(S(=O)(=O)N4CC(C)CC(C)C4)cc3)nc12 (configuration not stated) | – | – | 1.18 µM (active) | – | – | 4.98 µM (active) | – | 5.61 µM (active) | 2.27 µM (active) | 8.16 µM (active) | 42.1 µM (active) | > 100 µM (active) | 7.47 µM (active) | 5.72 µM (active) | 1.73 µM (active) | 2.57 µM (active) | 1.22 µM (active) | > 55.7 µM (not active) | – | – |
| COc1ccc(Nc2cc(C)nc3ccccc23)cc1 | – | – | – | – | – | – | – | – | – | – | – | – | – | – | – | – | – | – | 2.99 µM (active) | > 50 µM (not active) |
